According to patent US20220289753A1, “SHP2 INHIBITORS” (IRBM S.P.A., priority 2019, published 2022):

Tests used:
[1] = biological target: T1, SHP-2 enzyme (Met1-Leu525) (Homo sapiens, UniProt Q06124); experiment: SHP2 inhibition enzymatic assay (DiFMUP substrate, IRS1 peptide activation); type: biochemical; settings: SHP2 wt; activated by 500 nM IRS1 peptide; 75 μM DiFMUP substrate
T1 construct: synthetized by Origene, Met1-Leu525, cat #TP750155; purchased Origene TP750155
T1 sequence (Q06124 1-525): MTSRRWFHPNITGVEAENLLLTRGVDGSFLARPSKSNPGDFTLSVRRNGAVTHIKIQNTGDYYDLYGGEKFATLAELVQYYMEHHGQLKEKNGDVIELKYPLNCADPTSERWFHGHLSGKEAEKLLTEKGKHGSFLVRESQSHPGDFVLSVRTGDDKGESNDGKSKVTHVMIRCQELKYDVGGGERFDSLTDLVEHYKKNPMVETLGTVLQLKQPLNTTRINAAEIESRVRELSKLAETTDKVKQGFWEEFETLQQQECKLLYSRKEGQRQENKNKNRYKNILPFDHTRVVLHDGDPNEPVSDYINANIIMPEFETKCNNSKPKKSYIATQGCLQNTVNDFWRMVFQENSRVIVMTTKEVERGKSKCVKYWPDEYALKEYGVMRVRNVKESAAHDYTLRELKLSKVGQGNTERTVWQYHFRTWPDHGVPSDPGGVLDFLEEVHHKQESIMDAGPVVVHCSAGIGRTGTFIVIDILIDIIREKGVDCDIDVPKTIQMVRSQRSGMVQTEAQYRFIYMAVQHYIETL
Method in brief: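 SHP-2 (Met1-Leu525, 0.5 nM final) preincubated 30 min with compounds and IRS1 activating peptide in HEPES pH 7.2 buffer with NaCl, KCl, EDTA, tween-20, 5 mM DTT. DiFMUP then added for 30 min at room temperature and fluorescence read. IC50 from four-parameter logistic fit of % inhibition.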

[2] = tested on: ERK phosphorylation in KYSE-520 cells; experiment: Phospho-ERK cellular assay (Advanced phospho-ERK1/2 (Thr202/Tyr204) TR-FRET kit); type: cell-based; settings: Homo sapiens, KYSE-520, 2 h, KYSE-520 cells, 2 h at 37° C., TR-FRET; read-out: pERK IC50
Method in brief: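 IC50 values are inflection points of four-parameter logistic fits of percent activity against compound dilution. Compound exposure lasted 2 h at 37° C in KYSE-520 cells. Lysates were probed overnight with Eu-cryptate/d2 antibodies to ERK1/2 phosphorylated at Thr202/Tyr204, so reduced TR-FRET indicates SHP2 inhibition.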

Row | SMILES | IC50 [1] [nM] | IC50 [2] [nM]
1 | CC1(N)CCN(c2nc3nc(Sc4ccccc4S(F)(F)(F)(F)F)cnc3[nH]2)CC1 [Example 74, 4-methyl-1-(5-((2-(pentafluoro-l6-sulfaneyl)phenyl)thio)-1H-imidazo[4,5-b]pyrazin-2-yl)piperidin-4-amine] | < 500 | 1000 to 5000
2 | COc1nccc(Sc2cnc3[nH]c(N4CCC5(CC4)Cc4ncccc4[C@H]5N)nc3n2)c1Cl [Example 151, (S)-1′-(5-((3-chloro-2-methoxypyridin-4-yl)thio)-1H-imidazo[4,5-b]pyrazin-2-yl)-5,7-dihydrospiro[cyclopenta[b]pyridine-6,4′-piperidin]-5-amine] | < 500 | > 5000
3 | N[C@@H]1c2ccccc2CC12CCN(c1nc3nc(Sc4cccc5c4OCC(=O)N5)cnc3[nH]1)CC2 [Example 157] | < 500 | > 5000
4 | CC(=O)Nc1nccc(Sc2cnc3[nH]c(N4CCC5(CC4)Cc4ccccc4[C@H]5N)nc3n2)c1Cl [Example 147, (S)-N-(4-((2-(1-amino-1,3-dihydrospiro[indene-2,4′-piperidin]-1′-yl)-1H-imidazo[4,5-b]pyrazin-5-yl)thio)-3-chloropyridin-2-yl)acetamide] | < 500 | < 1000
5 | N[C@@H]1c2ccccc2OC12CCN(c1nc3nc(Sc4ccncc4Cl)cnc3[nH]1)CC2 [Example 155, (R)-1′-(5-((3-chloropyridin-4-yl)thio)-1H-imidazo[4,5-b]pyrazin-2-yl)-3H-spiro[benzofuran-2,4′-piperidin]-3-amine] | < 500 | 1000 to 5000
6 | CC(=O)N1CC(F)(F)c2c(Sc3cnc4[nH]c(N5CCC6(CC5)Cc5ccccc5[C@H]6N)nc4n3)cccc21 [Example 135, (S)-1-(4-((2-(1-amino-1,3-dihydrospiro[indene-2,4′-piperidin]-1′-yl)-1H-imidazo[4,5-b]pyrazin-5-yl)thio)-3,3-difluoroindolin-1-yl)ethan-1-one] | < 500 | < 1000
7 | CN(C)c1nccc(Sc2cnc3[nH]c(N4CCC5(CC4)Cc4ncccc4[C@H]5N)nc3n2)c1Cl [Example 154, (S)-1′-(5-((3-chloro-2-(dimethylamino)pyridin-4-yl)thio)-1H-imidazo[4,5-b]pyrazin-2-yl)-5,7-dihydrospiro[cyclopenta[b]pyridine-6,4′-piperidin]-5-amine] | < 500 | > 5000
8 | N[C@@H]1c2ccccc2OC12CCN(c1nc3nc(Sc4cccnc4C(F)(F)F)cnc3[nH]1)CC2 [Example 143, (R)-1′-(5-((2-(trifluoromethyl)pyridin-3-yl)thio)-1H-imidazo[4,5-b]pyrazin-2-yl)-3H-spiro[benzofuran-2,4′-piperidin]-3-amine] | < 500 | < 1000
9 | N[C@@H]1c2cccnc2CC12CCN(c1nc3ncc(Sc4ccnc(Cl)c4Cl)nc3[nH]1)CC2 [Example 171, (S)-1′-(5-((2,3-dichloropyridin-4-yl)thio)-1H-imidazo[4,5-b]pyrazin-2-yl)-5,7-dihydrospiro[cyclopenta[b]pyridine-6,4′-piperidin]-5-amine] | < 500 | < 1000
10 | CNc1nccc(Sc2cnc3[nH]c(N4CCC5(CC4)Cc4ccccc4[C@H]5N)nc3n2)c1Cl [Example 130, (S)-1′-(6-((3-chloro-2-(methylamino)pyridin-4-yl)thio)-1H-imidazo[4,5-b]pyrazin-2-yl)-1,3-dihydrospiro[indene-2,4′-piperidin]-1-amine] | < 500 | < 1000
11 | N[C@@H]1c2cccnc2CC12CCN(c1nc3ncc(Sc4cccc5c4CCC(=O)N5)nc3[nH]1)CC2 [Example 170, (S)-5-((2-(5-amino-5,7-dihydrospiro[cyclopenta[b]pyridine-6,4′-piperidin]-1′-yl)-1H-imidazo[4,5-b]pyrazin-5-yl)thio)-3,4-dihydroquinolin-2(1H)-one] | < 500 | 1000 to 5000
12 | N[C@@H]1c2ccccc2CC12CCN(c1nc3ncc(Sc4ccnc5ccccc45)nc3[nH]1)CC2 [Example 176, (S)-1′-(6-(quinolin-4-ylthio)-1H-imidazo[4,5-b]pyrazin-2-yl)-1,3-dihydrospiro[indene-2,4′-piperidin]-1-amine] | < 500 | < 1000

Now from value to compound:

Row | IC50 [1] [nM] | IC50 [2] [nM] | SMILES
13 | < 500 | < 1000 | N[C@@H]1c2cc(F)c(F)cc2CC12CCN(c1nc3nc(Sc4ccnc(NC5CC5)c4Cl)cnc3[nH]1)CC2 [Example 189, (S)-1′-(5-((3-chloro-2-(cyclopropylamino)pyridin-4-yl)thio)-1H-imidazo[4,5-b]pyrazin-2-yl)-5,6-difluoro-1,3-dihydrospiro[indene-2,4′-piperidin]-1-amine]
14 | 500 to 3000 | > 5000 | COc1nnccc1Sc1cnc2[nH]c(N3CCC4(CC3)Cc3ccccc3[C@H]4N)nc2n1 [Example 236, (S)-1′-(5-((3-methoxypyridazin-4-yl)thio)-1H-imidazo[4,5-b]pyrazin-2-yl)-1,3-dihydrospiro[indene-2,4′-piperidin]-1-amine]
15 | < 500 | < 1000 | Cc1nccc(Sc2cnc3nc(N4CCC5(CC4)Cc4ccccc4[C@H]5N)[nH]c3n2)c1Cl [Example 195, (S)-1′-(6-((3-chloro-2-methylpyridin-4-yl)thio)-1H-imidazo[4,5-b]pyrazin-2-yl)-1,3-dihydrospiro[indene-2,4′-piperidin]-1-amine]
16 | < 500 | < 1000 | Nc1nccc(Sc2cnc3nc(N4CCC5(CC4)Cc4cc(F)ccc4[C@H]5N)[nH]c3n2)c1Cl [Example 199, (S)-1′-(6-((2-amino-3-chloropyridin-4-yl)thio)-1H-imidazo[4,5-b]pyrazin-2-yl)-5-fluoro-1,3-dihydrospiro[indene-2,4′-piperidin]-1-amine]
17 | < 500 | 1000 to 5000 | Nc1nccc(Sc2cnc3[nH]c(N4CCC5(CC4)Cc4ncc(F)cc4[C@H]5N)nc3n2)c1Cl [Example 230, (S)-1′-(5-((2-amino-3-chloropyridin-4-yl)thio)-1H-imidazo[4,5-b]pyrazin-2-yl)-3-fluoro-5,7-dihydrospiro[cyclopenta[b]pyridine-6,4′-piperidin]-5-amine]
18 | < 500 | < 1000 | Nc1nccc(Sc2cnc3[nH]c(N4CCC5(CC4)Cc4ncccc4[C@H]5N)cc3n2)c1Cl [Example 267, (S)-1′-(2-((2-amino-3-chloropyridin-4-yl)thio)-5H-pyrrolo[2,3-b]pyrazin-6-yl)-5,7-dihydrospiro[cyclopenta[b]pyridine-6,4′-piperidin]-5-amine]
19 | < 500 | < 1000 | N[C@@H]1c2cc(F)ccc2CC12CCN(c1nc3ncc(Sc4ccncc4F)nc3[nH]1)CC2 [Example 187, (S)-6-fluoro-1′-(6-((3-fluoropyridin-4-yl)thio)-1H-imidazo[4,5-b]pyrazin-2-yl)-1,3-dihydrospiro[indene-2,4′-piperidin]-1-amine]
20 | < 500 | 1000 to 5000 | N[C@@H]1c2ccccc2CC12CCN(c1[nH]c3ncc(Sc4cccc(Cl)c4Cl)nc3c1Cl)CC2 [Example 248, (S)-1′-(7-chloro-2-((2,3-dichlorophenyl)thio)-5H-pyrrolo[2,3-b]pyrazin-6-yl)-1,3-dihydrospiro[indene-2,4′-piperidin]-1-amine]
21 | < 500 | > 5000 | Nc1nccc(Sc2cnc3[nH]c(N4CCC5(CC4)Cc4ccc(N6CCOCC6)cc4[C@H]5N)nc3n2)c1Cl [Example 223, (S)-1′-(5-((2-amino-3-chloropyridin-4-yl)thio)-1H-imidazo[4,5-b]pyrazin-2-yl)-6-morpholino-1,3-dihydrospiro[indene-2,4′-piperidin]-1-amine]
22 | < 500 | > 5000 | Nc1nccc(Sc2cnc3[nH]c(N4CCC5(CC4)Cc4ncc(F)cc4[C@@H]5N)nc3n2)c1Cl [Example 229, (R)-1′-(5-((2-amino-3-chloropyridin-4-yl)thio)-1H-imidazo[4,5-b]pyrazin-2-yl)-3-fluoro-5,7-dihydrospiro[cyclopenta[b]pyridine-6,4′-piperidin]-5-amine]
23 | < 500 | < 1000 | N[C@@H]1c2ccccc2CC12CCN(c1nc3nc(Sc4ccn[nH]c4=O)cnc3[nH]1)CC2 [Example 234, (S)-4-((2-(1-amino-1,3-dihydrospiro[indene-2,4′-piperidin]-1′-yl)-1H-imidazo[4,5-b]pyrazin-5-yl)thio)pyridazin-3(2H)-one]
24 | < 500 | < 1000 | CCOc1cnccc1Sc1cnc2[nH]c(N3CCC4(CC3)Cc3ccccc3[C@H]4N)nc2n1 [Example 200, (S)-1′-(5-((3-ethoxypyridin-4-yl)thio)-1H-imidazo[4,5-b]pyrazin-2-yl)-1,3-dihydrospiro[indene-2,4′-piperidin]-1-amine]
